Source: the supplement of paper PMC10307832

Legend:
Experiment in all cases: relative viability (nuclei count vs DMSO), 5 days (fraction); higher = more cells survive
Dactolisib + Dasatinib = compound: Cn1c(=O)n(-c2ccc(C(C)(C)C#N)cc2)c2c3cc(-c4cnc5ccccc5c4)ccc3ncc21 [Dactolisib] + Cc1nc(Nc2ncc(C(=O)Nc3c(C)cccc3Cl)s2)cc(N2CCN(CCO)CC2)n1 [Dasatinib] (partner 0.075 µM)
Method in brief: (§1)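 Lung cancer cell lines in 1536-well plates got either a single drug or a fixed anchor-drug dose together with five library-drug doses (not always all listed) in √10 steps, by pin tool, on the day after seeding. Nuclei were counted after 5 days, and relative viability is the treated-to-vehicle ratio of nuclei counts. Values are medians of duplicate plates.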

Dactolisib + Pictilisib = compound: Cn1c(=O)n(-c2ccc(C(C)(C)C#N)cc2)c2c3cc(-c4cnc5ccccc5c4)ccc3ncc21 [Dactolisib] + CS(=O)(=O)N1CCN(Cc2cc3nc(-c4cccc5[nH]ncc45)nc(N4CCOCC4)c3s2)CC1 [Pictilisib] (partner 1 µM)
Method in brief: as §1

AZ505 + Palbociclib = compound: C1CCC(CC1)N(CCNCCC2=C3C(=C(C=C2)O)NC(=O)CO3)C(=O)CCNCCC4=CC(=C(C=C4)Cl)Cl [AZ505] + CC(=O)c1c(C)c2cnc(Nc3ccc(N4CCNCC4)cn3)nc2n(C2CCCC2)c1=O [Palbociclib] (partner 0.5 µM)
Method in brief: as §1

Dactolisib + Navitoclax = compound: Cn1c(=O)n(-c2ccc(C(C)(C)C#N)cc2)c2c3cc(-c4cnc5ccccc5c4)ccc3ncc21 [Dactolisib] + CC1(C)CCC(c2ccc(Cl)cc2)=C(CN2CCN(c3ccc(C(=O)NS(=O)(=O)c4ccc(N[C@H](CCN5CCOCC5)CSc5ccccc5)c(S(=O)(=O)C(F)(F)F)c4)cc3)CC2)C1 [Navitoclax] (partner 0.5 µM)
Method in brief: as §1

Question: For UMC-11, which relative viability (Dactolisib + Dasatinib; first compound 0.002 µM) is on record?
Answer: 0.496

Question: And the relative viability (Dactolisib + Dasatinib; first compound 0.006325 µM)?
Answer: 0.419

Question: What about the relative viability (Dactolisib + Dasatinib; first compound 0.02 µM) of the same cell line?
Answer: 0.37

Question: What about the relative viability (Dactolisib + Dasatinib; first compound 0.06325 µM) of the same cell line?
Answer: 0.253

Question: What about the relative viability (Dactolisib + Dasatinib; first compound 0.2 µM) of the same cell line?
Answer: 0.219

Question: And the relative viability (Dactolisib + Pictilisib; first compound 0.002 µM)?
Answer: 0.753

Question: What about the relative viability (Dactolisib + Pictilisib; first compound 0.006325 µM) of the same cell line?
Answer: 0.727

Question: And the relative viability (Dactolisib + Pictilisib; first compound 0.02 µM)?
Answer: 0.606

Question: And the relative viability (Dactolisib + Pictilisib; first compound 0.06325 µM)?
Answer: 0.285

Question: And the relative viability (Dactolisib + Pictilisib; first compound 0.2 µM)?
Answer: 0.203

Question: And the relative viability (AZ505 + Palbociclib; first compound 0.08 µM)?
Answer: 0.303

Question: And the relative viability (AZ505 + Palbociclib; first compound 0.253 µM)?
Answer: 0.33

Question: And the relative viability (AZ505 + Palbociclib; first compound 0.8 µM)?
Answer: 0.332

Question: And the relative viability (AZ505 + Palbociclib; first compound 2.53 µM)?
Answer: 0.337

Question: And the relative viability (AZ505 + Palbociclib; first compound 8 µM)?
Answer: 0.321

Question: What about the relative viability (Dactolisib + Navitoclax; first compound 0.002 µM) of the same cell line?
Answer: 0.339

Question: And the relative viability (Dactolisib + Navitoclax; first compound 0.006325 µM)?
Answer: 0.286

Question: What about the relative viability (Dactolisib + Navitoclax; first compound 0.02 µM) of the same cell line?
Answer: 0.243

Question: And the relative viability (Dactolisib + Navitoclax; first compound 0.06325 µM)?
Answer: 0.131

Question: And the relative viability (Dactolisib + Navitoclax; first compound 0.2 µM)?
Answer: 0.124
